Measurements from patent US12239719B2, “Fluorochemical targeted therapies” (MT RESEARCH, LLC, priority 2016, dated 2025).

Tests used:
[1] = test system: metastatic pulmonary osteosarcoma; test: Aerosol treatment of dog with metastatic pulmonary osteosarcoma; format: in vivo; details: control dogs (n=50), gemcitabine alone
Protocol: A dog with extensive metastatic pulmonary osteosarcoma was treated with 60% perflubron emulsion (PFCE) containing 9 mg/mL gemcitabine (GCB) (PFCE-GCB=1000 mg GCB in 110 mL 60% perflubron emulsion). Aerosolized PFCE-GCB was delivered to the lungs of the dog twice weekly using an AeroTech™ II nebulizer (Biodex Medical Systems, Inc., Shirley, NY).
Treatment was discontinued at 6 months.
Control dogs (n=50) received gemcitabine alone.

[2] = oral (drink); cited from earlier work

Q: Which durable tumor eradication [1] does the source give for `Nc1ccn([C@@H]2O[C@H](CO)[C@@H](O)C2(F)F)c(=O)n1` [gemcitabine] here?
A: Its durable tumor eradication is “tumors returned in all control cases”.

Q: With `COC(=O)c1ccc2c(c1)NC(=O)/C2=C(\Nc1ccc(N(C)C(=O)CN2CCN(C)CC2)cc1)c1ccccc1` [nintedanib] as the molecule, how does the fraction absorbed [2] read?
A: Its fraction absorbed is 5%.
